± gives the expanded uncertainty stated by the source.
How the values were obtained:
[1] = refractive index (Na D-line) (dimensionless); details: 293.15 K; 101.33 kPa; Liquid; Standard Abbe refractometry
[2] = relative permittivity at zero frequency (dimensionless); details: 293.15 K; 91.3 kPa; Liquid; Coaxial cylinder capacitor
[3] = Liquid; for mass density: 293.15 K, 101.33 kPa, Pycnometric method; for Normal boiling temperature: Ebulliometric method (Recirculating still)
[4] = relative permittivity at zero frequency (dimensionless); xn = mol fraction of the nth substance listed; details: 293.15 K, 91.3 kPa, Liquid, Coaxial cylinder capacitor

SMILES	refractive index [1]	relative permittivity at zero frequency [2]	mass density [3] [kg/m3]	Normal boiling temperature [3] [°C]	relative permittivity at zero frequency ([4]; x1 = 0.05)	relative permittivity at zero frequency ([4]; x1 = 0.1)	relative permittivity at zero frequency ([4]; x1 = 0.2)	relative permittivity at zero frequency ([4]; x1 = 0.3)	relative permittivity at zero frequency ([4]; x1 = 0.4)	relative permittivity at zero frequency ([4]; x1 = 0.5)	relative permittivity at zero frequency ([4]; x1 = 0.6)	relative permittivity at zero frequency ([4]; x1 = 0.7)	relative permittivity at zero frequency ([4]; x1 = 0.8)	relative permittivity at zero frequency ([4]; x1 = 0.9)	relative permittivity at zero frequency ([4]; x1 = 0.95)	relative permittivity at zero frequency ([4]; x1 = 0.98)	relative permittivity at zero frequency ([4]; x1 = 1)	relative permittivity at zero frequency ([4]; x2 = 0)
CC(=O)O [acetic acid]	1.372 ± 0.0028	6.15 ± 0.02	1055 ± 4.1	118.0 ± 0.51	–	–	–	–	–	–	–	–	–	–	–	–	–	–
CC(=O)O [acetic acid] + O	–	–	–	–	73.5 ± 0.23	67.7 ± 0.22	58 ± 0.18	49.4 ± 0.16	41.8 ± 0.13	34.9 ± 0.11	28.5 ± 0.09	22.41 ± 0.07	16.55 ± 0.05	11.11 ± 0.04	8.64 ± 0.03	7.25 ± 0.02	6.15 ± 0.02	–
CCO [ethanol]	1.3612 ± 0.0028	25.02 ± 0.08	790 ± 2.1	78.20 ± 0.51	–	–	–	–	–	–	–	–	–	–	–	–	–	–
CCO [ethanol] + O	–	–	–	–	74.7 ± 0.24	69.4 ± 0.22	59.98 ± 0.19	52.2 ± 0.17	46.1 ± 0.15	41.1 ± 0.13	37.01 ± 0.12	33.5 ± 0.11	30.36 ± 0.1	27.55 ± 0.09	26.28 ± 0.08	25.53 ± 0.08	25.02 ± 0.08	–
CO [methanol]	1.328 ± 0.0027	33 ± 0.11	793 ± 2.1	64.70 ± 0.51	–	–	–	–	–	–	–	–	–	–	–	–	–	–
CO [methanol] + O	–	–	–	–	76.058 ± 0.24	72.27 ± 0.23	65.58 ± 0.21	59.67 ± 0.19	54.7 ± 0.17	50.22 ± 0.16	46.22 ± 0.15	42.54 ± 0.14	39.18 ± 0.12	36.1 ± 0.12	34.65 ± 0.11	33.72 ± 0.11	33 ± 0.11	–
O [water]	1.3342 ± 0.0028	79.99 ± 0.25	999 ± 2.2	100.0 ± 0.5	–	–	–	–	–	–	–	–	–	–	–	–	–	–
O [water] + CC(=O)O	–	–	–	–	–	–	–	–	–	–	–	–	–	–	–	–	–	79.99 ± 0.25
O [water] + CCO	–	–	–	–	–	–	–	–	–	–	–	–	–	–	–	–	–	79.99 ± 0.25
O [water] + CO	–	–	–	–	–	–	–	–	–	–	–	–	–	–	–	–	–	79.99 ± 0.25

From the NIST ThermoML archive (doi:10.1016/j.jct.2012.08.009)
